Data reported in patent US20220047545A1 (priority 2020, published 2022).

target: RBD of SARS-CoV-2 spike protein (Severe acute respiratory syndrome coronavirus 2, UniProt P0DTC2); conditions: literature computational study; cited from earlier work

Row | Molecule | binding energy ΔG to RBD / viral spike protein [kcal/mol]
1 | catechin [cathechin] | -7.9

target: hACE2 (Homo sapiens, UniProt Q9BYF1); conditions: literature computational study (Jena et al.); cited from earlier work
Sequence (Q9BYF1 18-805): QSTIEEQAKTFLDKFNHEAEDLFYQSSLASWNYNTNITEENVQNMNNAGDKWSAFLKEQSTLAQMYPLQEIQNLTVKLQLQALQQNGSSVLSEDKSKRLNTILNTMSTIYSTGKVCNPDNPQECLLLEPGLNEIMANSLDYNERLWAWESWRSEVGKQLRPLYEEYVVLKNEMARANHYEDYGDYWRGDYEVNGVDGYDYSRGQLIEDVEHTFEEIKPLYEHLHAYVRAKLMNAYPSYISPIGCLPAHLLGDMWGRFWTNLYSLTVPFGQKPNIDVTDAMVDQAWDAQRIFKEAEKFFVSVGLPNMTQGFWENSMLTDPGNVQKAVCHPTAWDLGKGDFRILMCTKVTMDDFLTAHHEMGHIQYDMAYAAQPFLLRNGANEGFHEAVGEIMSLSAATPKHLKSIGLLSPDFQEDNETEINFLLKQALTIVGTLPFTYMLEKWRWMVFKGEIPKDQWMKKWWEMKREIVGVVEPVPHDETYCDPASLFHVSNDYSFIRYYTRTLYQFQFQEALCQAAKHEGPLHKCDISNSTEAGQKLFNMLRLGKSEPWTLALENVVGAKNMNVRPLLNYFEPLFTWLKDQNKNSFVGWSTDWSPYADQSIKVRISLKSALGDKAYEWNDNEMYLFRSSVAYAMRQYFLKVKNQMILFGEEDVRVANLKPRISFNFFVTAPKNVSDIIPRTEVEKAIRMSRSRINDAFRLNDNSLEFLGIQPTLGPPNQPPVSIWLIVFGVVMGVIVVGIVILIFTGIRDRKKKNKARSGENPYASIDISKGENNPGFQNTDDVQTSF

Row | Molecule | binding energy to hACE2 [kcal/mol]
2 | catechin [cathechin] | -7.8

target: RBD of SARS-CoV-2 spike protein binding to hACE2 receptor (Severe acute respiratory syndrome coronavirus 2, UniProt P0DTC2); conditions: not given

Row | Molecule | Binding with RBD (% of control ± SD) | enhancement of blocking the RBD binding by Formula 1 when micronutrient tested individually
3 | COc1ccc([C@@H]2CC(=O)c3c(O)cc(O[C@@H]4O[C@H](CO[C@@H]5O[C@@H](C)[C@H](O)[C@@H](O)[C@H]5O)[C@@H](O)[C@H](O)[C@H]4O)cc3O2)cc1O [Hesperidin] | 90.3 ± 3.8 % of control | only minimal enhancement
4 | CC(C)c1cc2c(c(O)c1O)[C@@]1(C(=O)O)CCCC(C)(C)[C@@H]1CC2 [Carnosic acid] | 27.1 ± 5.1 % of control | 
5 | O=C1C[C@@H](c2ccc(O)cc2)Oc2cc(O)cc(O)c21 [Naringenin] | 20 ± 5.1 % of control | 
6 | C=C(C)[C@@H]1CCC(C)=C[C@H]1c1c(O)cc(CCCCC)cc1O [Cannabidiol, reference compound] | 1.4 ± 0.3 % of control | 
7 | O=C(O[C@@H]1Cc2c(O)cc(O)cc2O[C@H]1c1ccc(O)c(O)c1)c1cc(O)c(O)c(O)c1 [(−)-catechin gallate] | 37.4 ± 4.7 % of control | 
8 | C[C@@H]1O[C@@H](OC[C@H]2O[C@@H](Oc3c(-c4ccc(O)c(O)c4)oc4cc(O)cc(O)c4c3=O)[C@H](O)[C@@H](O)[C@@H]2O)[C@H](O)[C@H](O)[C@H]1O [Rutin] | 20.6 ± 6.3 % of control | 
9 | Oc1cc(O)cc(O)c1 [Phloroglucinol] | 69.5 ± 3.6 % of control | 
10 | Oc1cc(O)c2c(c1)O[C@H](c1ccc(O)c(O)c1)[C@@H](O)[C@@H]2c1c(O)cc(O)c2c1O[C@H](c1ccc(O)c(O)c1)[C@@H](O)C2 [Procyanidin B3] | 32.3 ± 3.7 % of control | 
11 | O=c1c(O)c(-c2ccc(O)cc2)oc2cc(O)cc(O)c12 [Kaemferol] | 15.6 ± 2.9 % of control | 
12 | O[C@H]1[C@H](O)[C@@H](O)CN2CC[C@H](O)[C@H]12 [Castanospermine] | 8.2 ± 2.3 % of control | 
13 | O=c1c(-c2ccc(O)cc2)coc2cc(O)cc(O)c12 [Genistein] | 22.1 ± 2.8 % of control | 
14 | O=c1c(O)c(-c2ccc(O)cc2O)oc2cc(O)cc(O)c12 [Morin] | 30.5 ± 5.8 % of control | 
15 | (−)-gallocatechin gallate | 75.4 ± 5.6 % of control | 
16 | O=C(O)[C@H]1O[C@@H](Oc2cc3oc(-c4ccccc4)cc(=O)c3c(O)c2O)[C@H](O)[C@@H](O)[C@@H]1O [Baicalin] | 10.3 ± 2.9 % of control | only minimal enhancement
17 | COc1c(O)cc2oc(-c3ccc(O)cc3)cc(=O)c2c1O [Hispidulin] | 20.1 ± 6.0 % of control | 
18 | COc1ccc(Cc2nccc3cc(OC)c(OC)cc23)cc1OC [Papaverine, reference compound] | 1.6 ± 0.2 % of control | 
19 | O=C(O)c1cc(O)c(O)c(O)c1 [Gallic acid] | 18.3 ± 4.5 % of control | 
20 | O=C1O[C@H]2[C@@H]3OC(=O)c4cc(O)c(O)c(O)c4-c4c(O)c(O)c5oc(=O)c6c(c(O)c(O)c7oc(=O)c4c5c76)-c4c(cc(O)c(O)c4O)C(=O)OC[C@H]3OC(O)[C@@H]2OC(=O)c2cc(O)c(O)c(O)c2-c2c1cc(O)c(O)c2O (mixture of isomers) [Punicalagin] | 32.3 ± 5.9 % of control | 
21 | O=c1c(O)c(-c2ccc(O)c(O)c2)oc2cc(O)ccc12 [Fisetin] | 22.4 ± 1.9 % of control | 
22 | Oc1cc(O)c2c(c1)O[C@H](c1cc(O)c(O)c(O)c1)[C@@H](O)C2 [(+)-gallocatechin] | 69.5 ± 2.8 % of control | 
23 | C=C(C)[C@H]1CC=C(C)CC1 [D-limonene] | 27.2 ± 6.4 % of control | 
24 | O=c1c(O)c(-c2ccc(O)c(O)c2)oc2cc(O)cc(O)c12 [Quercetin] | 22.4 ± 6.5 % of control | 
25 | O=C(OC[C@H]1O[C@@H](OC(=O)c2cc(O)c(O)c(OC(=O)c3cc(O)c(O)c(O)c3)c2)[C@H](OC(=O)c2cc(O)c(O)c(OC(=O)c3cc(O)c(O)c(O)c3)c2)[C@@H](OC(=O)c2cc(O)c(O)c(OC(=O)c3cc(O)c(O)c(O)c3)c2)[C@@H]1OC(=O)c1cc(O)c(O)c(OC(=O)c2cc(O)c(O)c(O)c2)c1)c1cc(O)c(O)c(OC(=O)c2cc(O)c(O)c(O)c2)c1 [Tannic acid] | 79.4 ± 2.3 % of control | 

Row | Molecule | Binding with RBD (% of control ± SD) | enhancement of blocking the RBD binding by Formula 1 when micronutrient tested individually
26 | C[S+]([O-])CCCCN=C=S [L-sulforaphane] | 30.2 ± 3.6 % of control | 
27 | O=c1oc2cc(O)ccc2c2ccc(O)cc12 [Urolithin A] | 31.1 ± 4.6 % of control | 
28 | Oc1ccc(/C=C/c2cc(O)cc(O)c2)cc1 [Trans-resveratrol] | 22.3 ± 2.9 % of control | 
29 | COc1ccc([C@@H]2CC(=O)c3c(O)cc(O)cc3O2)cc1O [Hesperetin] | 42.5 ± 4.6 % of control | 
30 | C=C1CC[C@@H]2[C@](C)(CO)[C@H](O)CC[C@@]2(C)[C@@H]1C/C=C1/C(=O)OC[C@H]1O [Andrographolide] | 22.1 ± 2.5 % of control | 
31 | O=c1c(O)cc([C@H]2Oc3cc(O)cc(O)c3C[C@H]2O)cc2c([C@H]3Oc4cc(O)cc(O)c4C[C@H]3O)cc(O)c(O)c12 [Theaflavin] | 27.3 ± 1.4 % of control | 
32 | O=c1cc(-c2ccc(O)cc2)oc2cc(O)cc(O)c12 [Apigenin] | 17.1 ± 4.1 % of control | 
33 | O=c1c(O)c(-c2cc(O)c(O)c(O)c2)oc2cc(O)cc(O)c12 [Myricetin] | 45.5 ± 5.4 % of control | 
34 | O=C(/C=C/c1ccc(O)c(O)c1)O[C@@H]1C[C@](O)(C(=O)O)C[C@@H](O)[C@H]1O [Chlorogenic acid] | 25.5 ± 2.5 % of control | 
35 | O=c1cc(-c2ccccc2)oc2cc(O)c(O)c(O)c12 [Baicalein] | 22.5 ± 5.1 % of control | 
36 | COc1ccc2cc3[n+](cc2c1OC)CCc1cc2c(cc1-3)OCO2 [Berberine] | 17.3 ± 2.7 % of control | 
37 | Oc1cc(O)c2c(c1)O[C@@H](c1cc(O)c(O)c(O)c1)[C@H](O)C2 [(−)-gallocatechin] | 73.5 ± 6.7 % of control | 
38 | C[C@@H]1O[C@@H](O[C@H]2[C@H](Oc3cc(O)c4c(c3)O[C@H](c3ccc(O)cc3)CC4=O)O[C@H](CO)[C@@H](O)[C@@H]2O)[C@H](O)[C@H](O)[C@H]1O [Naringin] | 23.6 ± 6.4 % of control | 
39 | O=c1cc(-c2ccc(O)c(O)c2)oc2cc(O)cc(O)c12 [Luteolin] | 10.4 ± 4.7 % of control | only minimal enhancement
40 | CC(=O)c1c(O)c(C)c(O)c2c1OC1=CC(=O)C(C(C)=O)C(=O)C12C (centres unmarked) [Usnic acid] | 22.0 ± 3.4 % of control | 
41 | Oc1cc(O)c2c(c1)O[C@H](c1ccc(O)c(O)c1)[C@H](O)[C@H]2c1c(O)cc(O)c2c1O[C@H](c1ccc(O)c(O)c1)[C@H](O)C2 [Procyanidin B2] | 31.1 ± 3.6 % of control | 
42 | O=C(/C=C/c1ccc(O)c(O)c1)O[C@H](Cc1ccc(O)c(O)c1)C(=O)O [Rosmarinic acid] | 22.5 ± 3.8 % of control | 
43 | COc1cc2c(cc1OC)-c1cc3ccc(OC)c(OC)c3c[n+]1CC2 [Palmatine] | 40.4 ± 6.1 % of control | 
44 | COc1cc(/C=C/c2ccc(O)cc2)cc(OC)c1 [Pterostillbene] | 23.1 ± 2.8 % of control | 
45 | O=C(O)[C@H]1O[C@@H](Oc2cc3oc(-c4ccc(O)cc4)cc(=O)c3c(O)c2O)[C@H](O)[C@@H](O)[C@@H]1O [Scutellarin] | 8.1 ± 3.7 % of control | 
46 | O=C(O)CC(O)C(=O)O (centres unmarked) [Malic acid] | 1.2 ± 3.7 % of control | 
47 | O=C(OC1Cc2c(O)cc(O)cc2OC1c1cc(O)c(O)c(O)c1)c1cc(O)c(O)c(O)c1 (single isomer, unassigned; (+)) [(+)-epigallocatechin gallate] | 87.5 ± 6.8 % of control | 
